{"source": "ChEMBL document CHEMBL5729501", "about": "“Isoindolines as HDAC inhibitors” (2022)", "target": "T1, Histone deacetylase 11 (Homo sapiens, UniProt Q96DB2)", "T1 sequence (Q96DB2 whole entry)": "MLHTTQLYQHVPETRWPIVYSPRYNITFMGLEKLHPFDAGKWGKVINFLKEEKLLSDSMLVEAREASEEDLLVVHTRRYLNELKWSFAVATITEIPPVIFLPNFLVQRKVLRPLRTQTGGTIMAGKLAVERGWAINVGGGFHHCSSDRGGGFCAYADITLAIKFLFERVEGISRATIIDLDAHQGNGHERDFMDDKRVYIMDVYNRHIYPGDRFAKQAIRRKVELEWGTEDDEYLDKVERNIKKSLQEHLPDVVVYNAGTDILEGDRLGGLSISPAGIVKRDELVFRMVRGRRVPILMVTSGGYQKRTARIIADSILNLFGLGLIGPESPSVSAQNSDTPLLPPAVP", "assay": "In Vitro Histone Deacetylase Assay II: The measurement of HD AC 11 deacetylase activity was performed using an electrophoretic mobility shift assay by Nanosyn (Santa Clara, Calif.). Full length human recombinant HD AC 11 protein was expressed in baculoviral system and purified by affinity chromatography. The enzymatic reactions were assembled in 384 well plates in a total volume of 25 μL in a reaction buffer composing: 100 mM HEPES, pH 7.5, 25 mM KCl, 0.1% bovine serum albumin, 0.01% Triton X-100, 1% DMSO (from compounds), 2 μM of the fluorescently labeled peptide substrate and enzyme. The enzyme was added at a final concentration of 10 nM. The peptide substrate FAM-RHKK(tri-fluor-Ac)—NH2 was used. The compounds were tested at 12 concentrations spaced by 3× dilution intervals. Negative control samples (0%-inhibition in the absence of inhibitor) and positive control samples (100%-inhibition) were assembled in replicates of four in each assay plate. The reactions were incubated at 25° C. and quenched by the addition of 45 μL of termination buffer (100 mM HEPES, pH 7.5, 0.01% Triton X-100, 0.05% SDS).The terminated assay plates were analyzed on LabChip® 3000 microfluidic electrophoresis instrument (Perkin Elmer/Caliper Life Sciences). The fluorescence intensity of the electrophoretically separated de-acetylated product and substrate peptide was measured. […]"}
{"smiles": "O=C(NO)c1cccc2c1CN(c1nc3ccccc3[nH]1)C2", "values": [{"measurement": "IC50", "result": "< 500", "unit": "nM"}]}
